Holding throughout (format): cell-based
Experiment [1] concerns TEAD reporter-containing human breast cancer cell line MCF7. Put plainly: TEAD reporter (luciferase) assay. The conditions noted are these: TEAD reporter MCF7 cells, 24 hours treatment, 1% serum media. The gist of the method: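 Cells plated at 30,000/well overnight, then treated 24 h in 1% serum medium with 0.1% DMSO. CCK-8 viability read at 450 nm, then Dual-Glo luciferase luminescence; IC50 from non-linear regression of dose-response curves.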

Another experiment deals with MSTO-211H cells. Put plainly: Proliferation assay (EdU incorporation), MSTO-211H. The conditions noted are these: Homo sapiens, 72 h, YAP-driven MSTO-211H (LATS1 mutation), 3 days with inhibitor, 1% serum. The gist of the method: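 YAP-driven lines were serum-starved (1% serum) for one day, then treated 3 days with inhibitors at 0.01-10 μM. EdU (10 µM) was added for a further 24 h, followed by fixation, permeabilization, Click-iT EdU labeling and Hoechst nuclear counterstain. Proliferation was scored by imaging EdU incorporation, and IC50 values are binned into ranges.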

The next experiment relates to NCI-H226 cells. Put plainly: Proliferation assay (EdU incorporation), NCI-H226. The settings on record: Homo sapiens, 72 h, YAP-driven NCI-H226 (NF2 mutation), 3 days with inhibitor, 1% serum. On the procedure: The anti-proliferative activity of TEAD inhibitors was evaluated in cells with different properties for YAP; “YAP-driven” cells (MSTO-211H, NCI-H226) in which YAP located in the nucleus and “YAP-independent” cells (OCM1, NCI-H28) where YAP located in the cytoplasm. […] TEAD inhibitors were evaluated with cell lines with these YAP profiling and mutational status.
The next day, replace it with cell starvation medium containing 1% serum. After one day of growth in the starvation medium, the cells were incubated for 3 days with TEAD inhibitors in a concentration range of 0.01-10 μM. After 3 days, EdU (Invitrogen) at a concentration of 10 µM was added to the starvation medium and incubated for an additional 24 hours. After removing the starvation medium remaining in each well, wash the wells with PBS. Cells were fixed with 4% paraformaldehyde (Electron microscopy sciences) at room temperature for 20 minutes. After removing the fix solution remaining in each well, wash the wells with PBS and the cells were permeabilized for 40 minutes by adding 0.5% triton X-100 (Sigma Aldrich). After removing the permeabilization solution remaining in each well, the EdU labeling was performed according to the instructions of the manufacturer's instructions (Click-iT™ Cell Reaction Buffer Kit, Invitrogen). After the Click reaction for EdU labeling, nuclei were stained with […] (Thermo Scientific) for total cell count analysis. After plate preparation for detection, Image acquisition was performed using the ImageXpress Micro XLS. The acquired images were analyzed using MetaXpress software (molecular devices). Through this experimental method, it was possible to confirm the inhibitory activity of TEAD inhibitors by detection EdU incorporated into proliferating cells.
IC50 for cell proliferation inhibition activity are shown in the Table 2 below and designated within the following ranges. [+++: ≤0.1 μM, ++: >0.1 μM to ≤1 μM, +: >1 μM to ≤10μ, −: >10 μM]

Consider `C=CC(=O)Nc1cnc2c(c1)c(-c1ccc(F)c(C(F)(F)F)c1)cn2C` [Example 92, N-(3-(4-Fluoro-3-(trifluoromethyl)phenyl)-1-methyl-1H-pyrrolo[2,3-b]pyridin-5-yl)acrylamide], for which the IC50 (in experiment [1]; in the experiment with MSTO-211H cells; in the experiment with NCI-H226 cells) was ≤ 100 nM in each case.
Consider `C=CC(=O)Nc1cnc2c(c1)c(-c1ccc(C(C)C)cc1)cn2C` [Example 93, N-(3-(4-Isopropylphenyl)-1-methyl-1H-pyrrolo[2,3-b]pyridin-5-yl)acrylamide], for which the IC50 in experiment [1] was 100 to 1000 nM; with MSTO-211H cells, ≤ 100 nM; in the experiment with NCI-H226 cells it was ≤ 100 nM.
As for `C=CC(=O)Nc1cnc2c(c1)c(-c1ccc(F)c(Cl)c1)cn2C` [Example 97, N-(3-(3-Chloro-4-fluorophenyl)-1-methyl-1H-pyrrolo[2,3-b]pyridin-5-yl)acrylamide], the IC50 is 100 to 1000 nM in experiment [1], ≤ 100 nM in the experiment with MSTO-211H cells and ≤ 100 nM in the experiment on NCI-H226 cells.
For the compound `C=CC(=O)Nc1cnc2c(c1)c(-c1ccc(Cl)cc1)cn2C` [Example 98, N-(3-(4-Chlorophenyl)-1-methyl-1H-pyrrolo[2,3-b]pyridin-5-yl)acrylamide], the IC50 in experiment [1] is 1000 to 10000 nM; in the experiment with MSTO-211H cells, ≤ 100 nM; with NCI-H226 cells, ≤ 100 nM.

By IC50 is commonly meant the concentration at which inhibition is half-maximal.

The values above are taken from patent US20250282735A1, “BICYCLE COMPOUNDS AS TEAD INHIBITOR” (DONG-A ST CO., LTD., priority 2022, published 2025).
